Assay results from a compilation of properties of binary mixtures (doi:10.1016/j.jct.2022.106923).

Assay: xn = mol fraction of the nth substance listed
Settings: 101.3 kPa

Compound `CO` + CC[n+]1ccn(C)c1C.F[B-](F)(F)F has a viscosity (293.15 K, x2 = 0) of 0.57 mPa·s, a viscosity (298.15 K, x2 = 0) of 0.532 mPa·s and a viscosity (303.15 K, x2 = 0) of 0.498 mPa·s. The viscosity (313.15 K, x2 = 0) was 0.439 mPa·s, the viscosity (318.15 K, x2 = 0) was 0.414 mPa·s and the viscosity (323.15 K, x2 = 0) was 0.39 mPa·s. It also gave a viscosity (328.15 K, x2 = 0) of 0.37 mPa·s and a viscosity (333.15 K, x2 = 0) of 0.351 mPa·s.
`CC[n+]1ccn(C)c1C.F[B-](F)(F)F` + CO gave a viscosity (293.15 K, x1 = 0.0165) of 0.863 mPa·s, a viscosity (293.15 K, x1 = 0.0364) of 0.999 mPa·s and a viscosity (293.15 K, x1 = 0.0608) of 1.27 mPa·s. It also gave a viscosity (293.15 K, x1 = 0.0915) of 1.45 mPa·s, a viscosity (293.15 K, x1 = 0.1848) of 2.75 mPa·s and a viscosity (293.15 K, x1 = 0.2607) of 4.43 mPa·s. The viscosity (293.15 K, x1 = 0.3768) was 9.29 mPa·s, the viscosity (298.15 K, x1 = 0.0165) was 0.803 mPa·s and the viscosity (298.15 K, x1 = 0.0364) was 0.925 mPa·s. For the same compound, the viscosity (298.15 K, x1 = 0.0608) was 1.177 mPa·s, the viscosity (298.15 K, x1 = 0.1313) was 1.77 mPa·s and the viscosity (298.15 K, x1 = 0.1848) was 2.5 mPa·s. It also gave a viscosity (298.15 K, x1 = 0.3768) of 8.18 mPa·s, a viscosity (303.15 K, x1 = 0.0165) of 0.75 mPa·s and a viscosity (303.15 K, x1 = 0.0608) of 1.096 mPa·s. It also gave a viscosity (303.15 K, x1 = 0.0915) of 1.26 mPa·s, a viscosity (303.15 K, x1 = 0.1848) of 2.28 mPa·s and a viscosity (303.15 K, x1 = 0.2607) of 3.6 mPa·s. The viscosity (303.15 K, x1 = 0.3768) was 7.17 mPa·s, the viscosity (308.15 K, x1 = 0.0165) was 0.701 mPa·s and the viscosity (308.15 K, x1 = 0.0364) was 0.801 mPa·s. The viscosity (308.15 K, x1 = 0.1848) was 2.09 mPa·s, the viscosity (308.15 K, x1 = 0.2607) was 3.28 mPa·s and the viscosity (308.15 K, x1 = 0.3768) was 6.85 mPa·s. It also gave a viscosity (313.15 K, x1 = 0.0165) of 0.658 mPa·s, a viscosity (313.15 K, x1 = 0.0364) of 0.752 mPa·s and a viscosity (313.15 K, x1 = 0.0608) of 0.953 mPa·s. It also gave a viscosity (313.15 K, x1 = 0.0915) of 1.086 mPa·s, a viscosity (313.15 K, x1 = 0.1313) of 1.4 mPa·s and a viscosity (313.15 K, x1 = 0.2607) of 2.99 mPa·s. The viscosity (313.15 K, x1 = 0.3768) was 6.15 mPa·s, the viscosity (318.15 K, x1 = 0.0165) was 0.619 mPa·s and the viscosity (318.15 K, x1 = 0.0364) was 0.706 mPa·s. The viscosity (318.15 K, x1 = 0.0608) was 0.893 mPa·s, the viscosity (318.15 K, x1 = 0.0915) was 1.012 mPa·s and the viscosity (318.15 K, x1 = 0.1313) was 1.3 mPa·s. It also gave a viscosity (318.15 K, x1 = 0.1848) of 1.77 mPa·s, a viscosity (318.15 K, x1 = 0.2607) of 2.74 mPa·s and a viscosity (323.15 K, x1 = 0.0165) of 0.583 mPa·s. The viscosity (323.15 K, x1 = 0.0608) was 0.839 mPa·s, the viscosity (323.15 K, x1 = 0.1848) was 1.63 mPa·s and the viscosity (323.15 K, x1 = 0.2607) was 2.54 mPa·s. The viscosity (323.15 K, x1 = 0.3768) was 5.01 mPa·s, the viscosity (328.15 K, x1 = 0.0165) was 0.55 mPa·s and the viscosity (328.15 K, x1 = 0.0364) was 0.626 mPa·s. It also gave a viscosity (328.15 K, x1 = 0.0608) of 0.79 mPa·s, a viscosity (328.15 K, x1 = 0.1848) of 1.52 mPa·s and a viscosity (328.15 K, x1 = 0.2607) of 2.34 mPa·s. The viscosity (333.15 K, x1 = 0.0165) was 0.522 mPa·s, the viscosity (333.15 K, x1 = 0.0364) was 0.59 mPa·s and the viscosity (333.15 K, x1 = 0.0608) was 0.749 mPa·s. It also gave a viscosity (333.15 K, x1 = 0.0915) of 0.816 mPa·s, a viscosity (333.15 K, x1 = 0.2607) of 2.17 mPa·s and a viscosity (333.15 K, x1 = 0.3768) of 4.13 mPa·s.
